Measurements reported in publication PMC8523698, “Preclinical characterization of an intravenous coronavirus 3CL protease inhibitor for the potential treatment of COVID19” (Nature Communications, 2021).
Values joined by “and” are separate entries in the source; they are usually repeats but may differ in a detail not shown here. Equal entries are not always repeated. Where two headings read alike, the source gives them in different places.

Experiments:
SARS-CoV-2 = system: SARS-CoV-2; design: method as in earlier work; conditions: preliminary data; read-out: unbound EC90; cited from earlier work
MHV-CoV 3CL^pro = MHV-CoV 3CL^pro (Murine coronavirus, UniProt P0C6X9); format: biochemical
Chain of MHV-CoV 3CL^pro (P0C6X9 3334-3635): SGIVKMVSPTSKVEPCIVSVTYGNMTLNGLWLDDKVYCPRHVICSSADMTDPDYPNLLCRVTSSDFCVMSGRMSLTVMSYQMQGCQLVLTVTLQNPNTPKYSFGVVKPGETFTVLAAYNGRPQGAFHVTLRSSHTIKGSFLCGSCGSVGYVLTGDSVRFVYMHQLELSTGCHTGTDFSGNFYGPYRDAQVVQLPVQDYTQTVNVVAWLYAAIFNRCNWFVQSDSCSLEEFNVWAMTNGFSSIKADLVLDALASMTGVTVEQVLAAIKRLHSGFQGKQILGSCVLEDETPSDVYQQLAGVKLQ

[1] = Liver microsome binding by equilibrium dialysis; conditions: for fraction unbound at 6 h: human, human liver microsomes, fu
HKU5-CoV 3CL^pro = HKU5-CoV 3CL^pro (Bat coronavirus HKU5, UniProt P0C6W4); format: biochemical; conditions: for Initial Velocity: triplicate, listed as Compound F2
Chain of HKU5-CoV 3CL^pro (P0C6W4 3339-3644 limits assumed): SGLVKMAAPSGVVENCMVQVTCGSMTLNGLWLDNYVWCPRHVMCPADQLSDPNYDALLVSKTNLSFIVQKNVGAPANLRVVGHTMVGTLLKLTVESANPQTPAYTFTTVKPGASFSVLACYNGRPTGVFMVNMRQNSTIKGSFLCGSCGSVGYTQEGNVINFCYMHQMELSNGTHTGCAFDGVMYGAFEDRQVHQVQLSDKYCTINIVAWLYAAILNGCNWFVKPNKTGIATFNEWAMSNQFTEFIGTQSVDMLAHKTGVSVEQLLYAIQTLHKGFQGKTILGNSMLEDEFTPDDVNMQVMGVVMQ

NL63-CoV 3CL^pro = NL63-CoV 3CL^pro (Human coronavirus NL63, UniProt P0C6X5); format: biochemical
Chain of NL63-CoV 3CL^pro (P0C6X5 2940-3242): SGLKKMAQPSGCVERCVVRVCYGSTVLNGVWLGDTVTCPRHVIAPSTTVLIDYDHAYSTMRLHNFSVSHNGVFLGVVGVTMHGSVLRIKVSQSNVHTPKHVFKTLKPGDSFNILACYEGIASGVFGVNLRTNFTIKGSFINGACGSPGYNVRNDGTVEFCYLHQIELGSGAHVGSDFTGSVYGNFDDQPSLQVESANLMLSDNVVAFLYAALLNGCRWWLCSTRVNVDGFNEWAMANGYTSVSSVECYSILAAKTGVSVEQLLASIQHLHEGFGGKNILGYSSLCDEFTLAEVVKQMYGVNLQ

PEDV 3CL^pro = PEDV 3CL^pro (Porcine epidemic diarrhea virus, UniProt P0C6Y4); format: biochemical
Chain of PEDV 3CL^pro (P0C6Y4 2998-3299): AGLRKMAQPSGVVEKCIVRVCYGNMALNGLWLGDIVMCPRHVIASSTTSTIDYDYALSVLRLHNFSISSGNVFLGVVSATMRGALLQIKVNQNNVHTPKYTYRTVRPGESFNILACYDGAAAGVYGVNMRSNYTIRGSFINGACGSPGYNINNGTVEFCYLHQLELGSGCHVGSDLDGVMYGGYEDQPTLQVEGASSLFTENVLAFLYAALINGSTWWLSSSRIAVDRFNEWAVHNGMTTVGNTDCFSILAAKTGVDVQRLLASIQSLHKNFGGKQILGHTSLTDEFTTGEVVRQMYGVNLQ

CYP3A4/5 [2] = biological target: T1, CYP3A4/5 (Homo sapiens, UniProt P08684); experiment: Reversible CYP inhibition in human liver microsomes
T1 sequence (P08684 whole entry): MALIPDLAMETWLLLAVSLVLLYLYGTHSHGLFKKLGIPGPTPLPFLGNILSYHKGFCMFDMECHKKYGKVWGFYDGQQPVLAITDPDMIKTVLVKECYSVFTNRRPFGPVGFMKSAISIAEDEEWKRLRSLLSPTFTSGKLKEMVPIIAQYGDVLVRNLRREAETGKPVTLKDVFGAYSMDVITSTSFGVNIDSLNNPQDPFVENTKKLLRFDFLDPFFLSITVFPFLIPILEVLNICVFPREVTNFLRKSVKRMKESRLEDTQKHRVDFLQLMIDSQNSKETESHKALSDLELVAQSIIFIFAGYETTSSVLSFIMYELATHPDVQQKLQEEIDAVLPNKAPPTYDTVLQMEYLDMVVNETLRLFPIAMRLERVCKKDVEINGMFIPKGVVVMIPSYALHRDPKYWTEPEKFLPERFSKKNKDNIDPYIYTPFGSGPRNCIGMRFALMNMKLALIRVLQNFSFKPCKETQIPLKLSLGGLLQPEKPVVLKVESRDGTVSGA

CYP3A = experiment: Enzyme kinetics of metabolite formation in HLM and effect of CYP3A inhibitor ketoconazole
FIPV 3CL^pro = FIPV 3CL^pro (Feline coronavirus, UniProt Q98VG9); format: biochemical
Chain of FIPV 3CL^pro (Q98VG9 2904-3205): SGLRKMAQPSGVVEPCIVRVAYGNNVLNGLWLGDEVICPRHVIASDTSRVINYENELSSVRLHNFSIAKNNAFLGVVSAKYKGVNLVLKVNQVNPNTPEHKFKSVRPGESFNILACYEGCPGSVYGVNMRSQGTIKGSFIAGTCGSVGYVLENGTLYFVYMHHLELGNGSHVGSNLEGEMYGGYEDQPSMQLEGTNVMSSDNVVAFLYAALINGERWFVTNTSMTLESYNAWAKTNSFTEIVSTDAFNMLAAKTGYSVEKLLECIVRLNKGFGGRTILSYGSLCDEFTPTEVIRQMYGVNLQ

Human Cathepsin D = Human Cathepsin D (Homo sapiens, UniProt P07339); experiment: Mammalian protease panel; format: biochemical
Chain of Human Cathepsin D (P07339 65-412): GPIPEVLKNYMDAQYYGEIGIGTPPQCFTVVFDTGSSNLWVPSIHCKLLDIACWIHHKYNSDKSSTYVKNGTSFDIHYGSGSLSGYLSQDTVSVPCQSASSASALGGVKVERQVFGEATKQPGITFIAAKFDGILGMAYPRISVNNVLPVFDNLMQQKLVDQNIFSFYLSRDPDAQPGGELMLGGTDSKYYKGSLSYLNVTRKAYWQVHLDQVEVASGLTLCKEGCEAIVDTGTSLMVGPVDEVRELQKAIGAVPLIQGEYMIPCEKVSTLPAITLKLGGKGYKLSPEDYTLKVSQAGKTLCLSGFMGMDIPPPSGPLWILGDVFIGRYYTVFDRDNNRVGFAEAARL

[3] = Metabolic stability in pooled human liver microsomes (intrinsic clearance); conditions: both, pH 7.5
HIV-1 protease = HIV-1 protease (Human immunodeficiency virus type 1 group M subtype B, UniProt P04585); experiment: Mammalian protease panel; format: biochemical
Method: (§1) The respective protease in assay buffer (50 mM Tris with 100 mM sodium chloride and Brij 35 at pH = 8 except for cathepsin D pH = 3.5 and HIV pH = 5.5) was added to assay ready compound plates. The enzymatic reaction was initiated with the addition of indicated substrate in assay buffer. Initial rates were measured by following the fluorescence of the cleaved substrate (Ex/Em 355/460 […]) using a Spectramax (Molecular Devices) fluorescence plate reader in the kinetic format.
(§2) IC50 values were generated based on a four-parameter logistic fit model using ActivityBase software (IDBS). Percent activity values were calculated based on control wells containing no compound (100% activity) and wells containing a control compound (0% activity).

Human Cathepsin B = Human Cathepsin B (Homo sapiens, UniProt P07858); experiment: Mammalian protease panel; format: biochemical
Method: as §1, §2

Human Elastase = Human Elastase (Homo sapiens, UniProt P08246); experiment: Mammalian protease panel; format: biochemical
Chain of Human Elastase (P08246 30-247 limits assumed): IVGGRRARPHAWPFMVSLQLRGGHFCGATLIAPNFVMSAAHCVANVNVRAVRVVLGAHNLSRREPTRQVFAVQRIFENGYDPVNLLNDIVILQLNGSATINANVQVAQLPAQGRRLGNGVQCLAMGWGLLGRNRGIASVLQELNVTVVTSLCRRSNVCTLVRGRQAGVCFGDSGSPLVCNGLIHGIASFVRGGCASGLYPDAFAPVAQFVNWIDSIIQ
Method: as §1, §2

HKU4-CoV 3CL^pro = HKU4-CoV 3CL^pro (Bat coronavirus HKU4, UniProt P0C6W3); format: biochemical; conditions: for Initial Velocity: triplicate, listed as Compound F2
Chain of HKU4-CoV 3CL^pro (P0C6W3 3292-3597 limits assumed): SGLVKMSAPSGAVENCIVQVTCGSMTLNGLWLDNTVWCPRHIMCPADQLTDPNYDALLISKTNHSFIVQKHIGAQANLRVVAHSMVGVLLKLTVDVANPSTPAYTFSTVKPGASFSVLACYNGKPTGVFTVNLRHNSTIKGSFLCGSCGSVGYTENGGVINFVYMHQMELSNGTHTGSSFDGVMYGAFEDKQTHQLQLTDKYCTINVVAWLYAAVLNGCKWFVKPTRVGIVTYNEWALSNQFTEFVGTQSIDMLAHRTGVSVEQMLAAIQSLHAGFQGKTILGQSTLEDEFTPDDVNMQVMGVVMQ

CYP3A4/5 [4] = biological target: T1, CYP3A4/5; experiment: Time-dependent inhibition of CYP enzymes in human liver microsomes; conditions: CYP3A4; Simcyp interaction input
[5] = Dog pharmacokinetic study; conditions: for clearance / half-life / Vd: male, Beagle, dog, plasma, iv; for Vd: Vdss
[6] = In vitro blood to plasma ratio; format: in vitro ADME; conditions: for Plasma concentration (Cp) / Whole blood concentration (Cb): human blood, substrate 1 µM
[7] = Liver S9 binding by equilibrium dialysis; conditions: for recovery at 6 h: human liver S9, %Recovery
[8] = Metabolic stability and enzyme kinetics in liver S9 (conversion to PF-00835231)

COc1cccc2[nH]c(C(=O)N[C@@H](CC(C)C)C(=O)N[C@@H](C[C@@H]3CCNC3=O)C(=O)CO)cc12 [PF-00835231]
EC90 (SARS-CoV-2): < 0.5 µM | Ki (MHV-CoV 3CL^pro): 0.0012 ± 0.0009 µM | fu, human liver microsomal binding ([1]; Microsomal protein 0.806mg/ml, individual replicates): 0.70 and 0.77 | HLM microsomal binding ([1]; clearance input): 0.75 | fraction unbound at 6 h ([1]; human liver microsomal binding, Geomean, Microsomal protein 0.806mg/ml): 0.75 | fraction unbound at 6 h ([1]; human liver microsomal binding, Microsomal protein 0.806mg/ml, individual replicates): 0.84 | fraction unbound at 6 h ([1]; microsomal protein 0.806mg/ml, individual replicates n=1-4): 0.7 | Initial Velocity (HKU5-CoV 3CL^pro; [Compound F2] 1.95312 nM): 0.9802 and 1.028 and 0.9544 | Initial Velocity (HKU5-CoV 3CL^pro; [Compound F2] 3.90625 nM): 0.9722 and 0.992 and 0.9888 | Initial Velocity (HKU5-CoV 3CL^pro; [Compound F2] 7.8125 nM): 0.8869 and 0.9497 and 0.9402 | Initial Velocity (HKU5-CoV 3CL^pro; [Compound F2] 20 nM): 0.7838 and 0.8106 and 0.827 | Initial Velocity (HKU5-CoV 3CL^pro; [Compound F2] 30 nM): 0.6911 and 0.6076 and 0.6927 | Initial Velocity (HKU5-CoV 3CL^pro; [Compound F2] 31.25 nM): 0.6277 and 0.6613 and 0.6251 | Initial Velocity (HKU5-CoV 3CL^pro; [Compound F2] 40 nM): 0.5119 and 0.5104 and 0.5524 | Initial Velocity (HKU5-CoV 3CL^pro; [Compound F2] 50 nM): 0.32 and 0.3287 and 0.3636 | Initial Velocity (HKU5-CoV 3CL^pro; [Compound F2] 62.5 nM): 0.1843 and 0.2599 and 0.2229 | Initial Velocity (HKU5-CoV 3CL^pro; [Compound F2] 80 nM): 0.01707 and 0.01468 and 0.01576 | Initial Velocity (HKU5-CoV 3CL^pro; [Compound F2] 100 nM): 0.01024 and 0.007665 and 0.009516 | Initial Velocity (HKU5-CoV 3CL^pro; [Compound F2] 200 nM): 0.003343 and 0.002684 and 0.002549 | Initial Velocity (HKU5-CoV 3CL^pro; [Compound F2] 300 nM): 0.000987 and 0.001807 and 0.00196 | Initial Velocity (HKU5-CoV 3CL^pro; [Compound F2] 400 nM): 0.002007 and 0.00134 and 0.002594 | Ki (HKU5-CoV 3CL^pro; mean ± SEM): 0.033 nM | Ki (NL63-CoV 3CL^pro): 0.00077 ± 0.00052 µM | Ki (PEDV 3CL^pro): 0.0003 ± 0.00011 µM | Ki (CYP3A4/5 [2]): 108 µM | CC50 (VeroE6-EGFP cells; African green monkey): > 50 µM | CC50 (VeroE6-EGFP cells; monkey): > 50 µM | fm,CYP3A (CYP3A; formation of the metabolite from PF-00835231 in HLM): 0.86 | microsomal CLint (CYP3A; human, pooled human liver microsomes, pH 7.5): 4.2 µL/min/mg | Ki (FIPV 3CL^pro): 0.00012 ± 0.0001 µM | IC50 (Human Cathepsin D): > 11 µM | microsomal CLint at 1 µM ([3]; liver microsomes): 14 µL/min/mg | microsomal CLint at 1 µM ([3]; pooled human liver microsomes): 7.5 µL/min/mg | IC50 (HIV-1 protease): > 11 µM | IC50 (Human Cathepsin B): 6 µM and 6.1 µM | IC50 (Human Elastase): > 33 µM | Initial Velocity (HKU4-CoV 3CL^pro; [Compound F2] 1.95312 nM): 0.9709 and 0.9956 and 0.9685 | Initial Velocity (HKU4-CoV 3CL^pro; [Compound F2] 3.90625 nM): 0.9706 and 0.9741 and 0.9413 | Initial Velocity (HKU4-CoV 3CL^pro; [Compound F2] 7.8125 nM): 0.919 and 0.9344 and 0.9288 | Initial Velocity (HKU4-CoV 3CL^pro; [Compound F2] 20 nM): 0.7972 and 0.7875 and 0.7775 | Initial Velocity (HKU4-CoV 3CL^pro; [Compound F2] 30 nM): 0.5859 and 0.5869 and 0.5914 | Initial Velocity (HKU4-CoV 3CL^pro; [Compound F2] 40 nM): 0.342 and 0.3124 and 0.3465 | Initial Velocity (HKU4-CoV 3CL^pro; [Compound F2] 50 nM): 0.1072 and 0.09971 and 0.1255 | Initial Velocity (HKU4-CoV 3CL^pro; [Compound F2] 60 nM): 0.03996 and 0.02999 and 0.0446 | Initial Velocity (HKU4-CoV 3CL^pro; [Compound F2] 80 nM): 0.0186 and 0.01858 and 0.02101 | Initial Velocity (HKU4-CoV 3CL^pro; [Compound F2] 100 nM): 0.01432 and 0.02363 and 0.01328 | Initial Velocity (HKU4-CoV 3CL^pro; [Compound F2] 400 nM): 0.004976 and 0.003329 and 0.004577 | Ki (HKU4-CoV 3CL^pro; mean ± SEM): 0.034 ± 0.079 nM | MBI Kapp (CYP3A4/5 [4]): 163.000 µM | CC50 (in vitro; African green monkey, CC50): > 100 µM | CC50 (in vitro; monkey, CC50 GeoMean (95% CI)): > 100 µM

COc1cccc2[nH]c(C(=O)N[C@@H](CC(C)C)C(=O)N[C@@H](C[C@@H]3CCNC3=O)C(=O)COP(=O)(O)O)cc12 [PF-07304814]
%unchanged in urine ([5]; dog IV, PF-07304814 […], PF-00835231 1.0mg/kg): < 0.1% | Total Concn, Mean Data ([5]; dog plasma, PF-07304814 prodrug dosed […] intravenous, time 8 h, mean, BLQ=0.1ng/mL): BLQ | Urine Concn ([5]; dog urine 4-8h, PF-07304814 prodrug dosed […] intravenous, individual dogs, BLQ=1ng/mL for urine): BLQ | clearance ([5]; CLp, dog IV (n=2, range), PF-07304814 […], PF-00835231 1.0mg/kg): 517 mL/min/kg | half-life ([5]; Terminal T1/2, dog IV (n=2, range), PF-07304814 […], PF-00835231 1.0mg/kg): 30 min | Vd ([5]; dog IV (n=2, range), PF-07304814 […], PF-00835231 1.0mg/kg): 9.3 L/kg | clearance ([5]; […], Clearance, Mean Data, PF-07304814 prodrug dosed […] intravenous, mean): 517 mL/min/kg | half-life ([5]; […], Half life, Mean Data, PF-07304814 prodrug dosed […] intravenous, mean): 30.6 min | Vd ([5]; […], Mean Data, PF-07304814 prodrug dosed […] intravenous, mean): 9.3 L/kg | Measured blood partitioning / Human blood partitioning [6]: 0.6 | Plasma concentration (Cp) ([6]; Mean): 1970 nM | Whole blood concentration (Cb) ([6]; Mean): 1.08 µM | Plasma concentration (Cp) ([6]; individual replicates): 2010 nM and 2000 nM and 1900 nM and 1950 nM | Whole blood concentration (Cb) ([6]; individual replicates): 1.11 µM and 1.06 µM and 1.1 µM | Hum liver S9 binding ([7]; clearance input): 0.89 | %Stability ([7]; human liver S9 matrix, n=4): 98% | recovery at 6 h ([7]; human, human liver S9 binding, MEAN, n 4): 94% | recovery at 6 h ([7]; human, human liver S9 binding, individual replicates): 95% | fraction unbound at 6 h ([7]; human, human liver S9, fu MEAN, human liver S9, mean, n=4): 0.89 | fraction unbound at 6 h ([7]; human, human liver S9, fu, human liver S9, individual replicates 1-4): 0.902 | fraction unbound at 6 h ([7]; human, human liver S9, fu, human liver S9 binding, MEAN, n 4): 0.89 | fraction unbound at 6 h ([7]; human, human liver S9, fu, human liver S9 binding, individual replicates): 0.867 | fraction unbound at 6 h, 2 µM ([7]; human, liver S9, Unbound fraction fu (%CV), human liver S9, 0.03mg/mL protein, 2 µM substrate): 0.89 | %Recovery, human liver S9 binding ([7]; individual replicates): 88% and 99% | fu, human liver S9 binding ([7]; individual replicates): 0.888 | %Stability, human liver S9 binding ([7]; mean, n 4): 98% | Vmax ([8]; Cyno, best-fit, Two enzyme: MM + Unsaturable): 1186 pmol/min/mg | microsomal CLint ([8]; cynomolgus monkey, liver S9, pH 7.5, CL, Cyno, unsaturable component, best-fit): 3.06 µL/min/mg | microsomal CLint ([8]; cynomolgus monkey, liver S9, pH 7.5, CLint total, Cyno, (vmax / KM) + CL): 150 µL/min/mg | microsomal CLint ([8]; monkey, liver S9, pH 7.5, CLint,2, low affinity kinetic component): 3.06 µL/min/mg | microsomal CLint ([8]; monkey, liver S9, pH 7.5, CLint,app): 150 µL/min/mg | microsomal CLint ([8]; monkey, liver S9, pH 7.5, CLintu (unbound CLint)): 168 µL/min/mg | Km at 20 min ([8]; monkey, monkey liver S9, pH 7.5): 8.1 µM
